Values quoted from earlier work as cited in patent publication US20100029602A1, “LOW-DOSE MOMETASONE FORMULATIONS” (Perrigo Israel Pharmaceuticals Ltd., priority 2007, published 2010).

solubility in ethyl alcohol (ethyl alcohol): moderately soluble
solubility in octanol (octanol): slightly soluble
solubility in water (water): practically insoluble
SMILES: C[C@@H]1C[C@H]2[C@@H]3CCC4=CC(=O)C=C[C@]4(C)[C@@]3(Cl)[C@@H](O)C[C@]2(C)[C@@]1(OC(=O)c1ccco1)C(=O)CCl [Mometasone furoate]
